According to PubChem BioAssay (NCI):
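In this assay, cells in 96-well plates receive the compound at five concentrations for 48 hours. Endpoints are linearly interpolated between the surrounding concentrations. TGI marks complete inhibition of growth.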

Tests used:
Test in all cases: NCI tumour cell line growth inhibition, 48 h
LOX IMVI melanoma = test system: LOX IMVI melanoma
MOLT-4 leukemia = test system: MOLT-4 leukemia
EKVX NSCLC = test system: EKVX NSCLC
ACHN renal = test system: ACHN renal
SF-295 CNS = test system: SF-295 CNS
NCI/ADR-RES ovarian = test system: NCI/ADR-RES ovarian
UACC-257 melanoma = test system: UACC-257 melanoma
SF-539 CNS = test system: SF-539 CNS
MDA-MB-435 = test system: MDA-MB-435
SF-268 CNS = test system: SF-268 CNS
OVCAR-8 ovarian = test system: OVCAR-8 ovarian
SK-MEL-5 melanoma = test system: SK-MEL-5 melanoma
SW-620 colon = test system: SW-620 colon
UACC-62 melanoma = test system: UACC-62 melanoma
HS 578T breast = test system: HS 578T breast
OVCAR-3 ovarian = test system: OVCAR-3 ovarian
OVCAR-5 ovarian = test system: OVCAR-5 ovarian
HOP-92 NSCLC = test system: HOP-92 NSCLC
MCF7 breast = test system: MCF7 breast
PC-3 prostate = test system: PC-3 prostate
RPMI-8226 leukemia = test system: RPMI-8226 leukemia
HOP-62 NSCLC = test system: HOP-62 NSCLC
SNB-19 CNS = test system: SNB-19 CNS
SR leukemia = test system: SR leukemia
OVCAR-4 ovarian = test system: OVCAR-4 ovarian
IGROV1 ovarian = test system: IGROV1 ovarian
SNB-75 CNS = test system: SNB-75 CNS
M14 melanoma = test system: M14 melanoma
HCC-2998 colon = test system: HCC-2998 colon
K-562 leukemia = test system: K-562 leukemia
DU-145 prostate = test system: DU-145 prostate
MDA-N = test system: MDA-N
MDA-MB-231 breast = test system: MDA-MB-231 breast
CAKI-1 renal = test system: CAKI-1 renal
NCI-H23 lung = test system: NCI-H23 lung
KM12 colon = test system: KM12 colon
A498 renal = test system: A498 renal
UO-31 renal = test system: UO-31 renal
NCI-H226 lung = test system: NCI-H226 lung
SK-OV-3 ovarian = test system: SK-OV-3 ovarian
U251 CNS = test system: U251 CNS
SK-MEL-28 melanoma = test system: SK-MEL-28 melanoma
HCT-15 colon = test system: HCT-15 colon
COLO 205 colon = test system: COLO 205 colon
NCI-H460 lung = test system: NCI-H460 lung
HT29 colon = test system: HT29 colon
SK-MEL-2 melanoma = test system: SK-MEL-2 melanoma
CCRF-CEM leukemia = test system: CCRF-CEM leukemia
T-47D breast = test system: T-47D breast
TK-10 renal = test system: TK-10 renal
SN12C renal = test system: SN12C renal
MALME-3M melanoma = test system: MALME-3M melanoma
786-0 renal = test system: 786-0 renal
A549 NSCLC = test system: A549 NSCLC
HL-60(TB) leukemia = test system: HL-60(TB) leukemia
HCT-116 colon = test system: HCT-116 colon
BT-549 breast = test system: BT-549 breast
RXF 393 renal = test system: RXF 393 renal
NCI-H522 lung = test system: NCI-H522 lung

CC(=O)O[C@H]1CN(S(=O)(=O)c2ccc(C)cc2)C[C@@H]1C1CCCCC1
TGI (LOX IMVI melanoma): 49.2 µM
TGI (MOLT-4 leukemia): 62.7 µM
TGI (EKVX NSCLC): 52.8 µM
TGI (ACHN renal): > 100 µM
TGI (SF-295 CNS): 32 µM
TGI (NCI/ADR-RES ovarian): 58.5 µM
TGI (UACC-257 melanoma): 48.3 µM
TGI (SF-539 CNS): 10.5 µM
TGI (MDA-MB-435): 70.5 µM
TGI (SF-268 CNS): 90.8 µM
TGI (OVCAR-8 ovarian): 73.2 µM
TGI (SK-MEL-5 melanoma): 31.9 µM
TGI (SW-620 colon): > 100 µM
TGI (UACC-62 melanoma): 61.7 µM
TGI (HS 578T breast): 37.8 µM
TGI (OVCAR-3 ovarian): 43.5 µM
TGI (OVCAR-5 ovarian): > 100 µM
TGI (HOP-92 NSCLC): 82.4 µM
TGI (MCF7 breast): 42.6 µM
TGI (PC-3 prostate): 58.5 µM
TGI (RPMI-8226 leukemia): 79.7 µM
TGI (HOP-62 NSCLC): > 100 µM
TGI (SNB-19 CNS): > 100 µM
TGI (SR leukemia): > 100 µM
TGI (OVCAR-4 ovarian): > 100 µM
TGI (IGROV1 ovarian): 40.9 µM
TGI (SNB-75 CNS): 63.1 µM
TGI (M14 melanoma): 37.3 µM
TGI (HCC-2998 colon): > 100 µM
TGI (K-562 leukemia): > 100 µM
TGI (DU-145 prostate): > 100 µM
TGI (MDA-N): > 100 µM
TGI (MDA-MB-231 breast): 82.7 µM
TGI (CAKI-1 renal): 83.7 µM
TGI (NCI-H23 lung): > 100 µM
TGI (KM12 colon): 36.3 µM
TGI (A498 renal): > 100 µM
TGI (UO-31 renal): > 100 µM
TGI (NCI-H226 lung): 48.9 µM
TGI (SK-OV-3 ovarian): > 100 µM
TGI (U251 CNS): > 100 µM
TGI (SK-MEL-28 melanoma): 59 µM
TGI (HCT-15 colon): > 100 µM
TGI (COLO 205 colon): > 100 µM
TGI (NCI-H460 lung): > 100 µM
TGI (HT29 colon): 84.7 µM
TGI (SK-MEL-2 melanoma): 37.7 µM
TGI (CCRF-CEM leukemia): > 100 µM
TGI (T-47D breast): > 100 µM
TGI (TK-10 renal): 72.2 µM

CC(C)(C)c1cc(C(=O)/C=C/c2ccn[nH]2)cc(C(C)(C)C)c1O
TGI (LOX IMVI melanoma): 3.48 µM
TGI (MOLT-4 leukemia): 10.1 µM
TGI (EKVX NSCLC): 28.4 µM
TGI (ACHN renal): 3.03 µM
TGI (SN12C renal): 3.6 µM
TGI (SF-295 CNS): 28.1 µM
TGI (MALME-3M melanoma): 20.2 µM
TGI (NCI/ADR-RES ovarian): 16.1 µM
TGI (UACC-257 melanoma): 11.2 µM
TGI (SF-539 CNS): 9.07 µM
TGI (MDA-MB-435): 8.34 µM
TGI (SF-268 CNS): 6.39 µM
TGI (OVCAR-8 ovarian): 6.02 µM
TGI (SK-MEL-5 melanoma): 20.1 µM
TGI (SW-620 colon): 6.27 µM
TGI (786-0 renal): 3.05 µM
TGI (UACC-62 melanoma): 8.37 µM
TGI (HS 578T breast): 9.22 µM
TGI (OVCAR-3 ovarian): 7.39 µM
TGI (OVCAR-5 ovarian): 13.6 µM
TGI (HOP-92 NSCLC): 5.53 µM
TGI (A549 NSCLC): 9.8 µM
TGI (MCF7 breast): 4.78 µM
TGI (PC-3 prostate): 5.18 µM
TGI (RPMI-8226 leukemia): 3.37 µM
TGI (HL-60(TB) leukemia): 5.64 µM
TGI (HOP-62 NSCLC): 9.52 µM
TGI (HCT-116 colon): 6.11 µM
TGI (SNB-19 CNS): 9.91 µM
TGI (SR leukemia): 3.61 µM
TGI (OVCAR-4 ovarian): 18 µM
TGI (IGROV1 ovarian): 3.97 µM
TGI (SNB-75 CNS): 9.61 µM
TGI (M14 melanoma): 3.51 µM
TGI (BT-549 breast): 17 µM
TGI (HCC-2998 colon): 3.37 µM
TGI (K-562 leukemia): 10.3 µM
TGI (DU-145 prostate): 7.52 µM
TGI (MDA-MB-231 breast): 3.97 µM
TGI (CAKI-1 renal): 6.98 µM
TGI (NCI-H23 lung): 7.38 µM
TGI (KM12 colon): 5.35 µM
TGI (RXF 393 renal): 3.19 µM
TGI (A498 renal): 6.25 µM
TGI (UO-31 renal): 3.23 µM
TGI (NCI-H226 lung): 11.6 µM
TGI (SK-OV-3 ovarian): 31.7 µM
TGI (U251 CNS): 3.11 µM
TGI (SK-MEL-28 melanoma): 11.7 µM
TGI (HCT-15 colon): 4.71 µM
TGI (COLO 205 colon): 4.98 µM
TGI (NCI-H522 lung): 2.73 µM
TGI (NCI-H460 lung): 8.6 µM
TGI (HT29 colon): 6.59 µM
TGI (SK-MEL-2 melanoma): 3.43 µM
TGI (CCRF-CEM leukemia): 5.97 µM
TGI (T-47D breast): 3.32 µM
TGI (TK-10 renal): 2.92 µM

CC[C@H]1C=CCC[C@@]2(C[C@@H]3CC[C@@H]4[C@H](C(=O)OCCCCCCCCCCCCCCCC(=O)N(CCCN)CCCCN)[C@]5(CCC[C@@H](C)O5)NC(=[N+]34)N2)O1
TGI (MALME-3M melanoma): 0.119 µM
TGI (NCI/ADR-RES ovarian): 2.7 µM
TGI (HOP-92 NSCLC): 0.197 µM
TGI (A549 NSCLC): 1.42 µM
TGI (PC-3 prostate): 1.46 µM
TGI (HOP-62 NSCLC): 0.106 µM
TGI (HCT-116 colon): 1.41 µM
TGI (SNB-19 CNS): 1.99 µM
TGI (IGROV1 ovarian): 2.28 µM
TGI (M14 melanoma): 0.0187 µM
TGI (MDA-N): 1.83 µM
TGI (CAKI-1 renal): 1.59 µM
TGI (NCI-H23 lung): 1.07 µM
TGI (KM12 colon): 1.2 µM
TGI (UO-31 renal): 0.334 µM
TGI (U251 CNS): 1.54 µM
TGI (HCT-15 colon): 1.4 µM
TGI (HT29 colon): 1.32 µM

COc1cc2c(cc1-c1coc3cc(OCC=C(C)C)ccc3c1=O)OCO2
TGI (LOX IMVI melanoma): 93.9 µM
TGI (MOLT-4 leukemia): 45.2 µM
TGI (EKVX NSCLC): > 100 µM
TGI (ACHN renal): > 100 µM
TGI (SN12C renal): > 100 µM
TGI (SF-295 CNS): > 100 µM
TGI (UACC-257 melanoma): > 100 µM
TGI (SF-539 CNS): > 100 µM
TGI (MDA-MB-435): > 100 µM
TGI (SF-268 CNS): > 100 µM
TGI (SK-MEL-5 melanoma): 36.9 µM
TGI (SW-620 colon): > 100 µM
TGI (786-0 renal): 61.8 µM
TGI (UACC-62 melanoma): > 100 µM
TGI (HS 578T breast): > 100 µM
TGI (OVCAR-3 ovarian): > 100 µM
TGI (OVCAR-5 ovarian): > 100 µM
TGI (HOP-92 NSCLC): > 100 µM
TGI (A549 NSCLC): > 100 µM
TGI (MCF7 breast): > 100 µM
TGI (PC-3 prostate): > 100 µM
TGI (RPMI-8226 leukemia): 66 µM
TGI (HL-60(TB) leukemia): 35.7 µM
TGI (HOP-62 NSCLC): 89.1 µM
TGI (HCT-116 colon): 51.4 µM
TGI (SNB-19 CNS): > 100 µM
TGI (SR leukemia): 33.3 µM
TGI (OVCAR-4 ovarian): > 100 µM
TGI (IGROV1 ovarian): > 100 µM
TGI (SNB-75 CNS): > 100 µM
TGI (M14 melanoma): > 100 µM
TGI (BT-549 breast): 48.4 µM
TGI (HCC-2998 colon): 44.8 µM
TGI (K-562 leukemia): > 100 µM
TGI (DU-145 prostate): > 100 µM
TGI (MDA-N): 28.5 µM
TGI (MDA-MB-231 breast): 65.6 µM
TGI (CAKI-1 renal): 58.5 µM
TGI (NCI-H23 lung): > 100 µM
TGI (KM12 colon): 52.4 µM
TGI (A498 renal): > 100 µM
TGI (UO-31 renal): > 100 µM
TGI (SK-OV-3 ovarian): > 100 µM
TGI (U251 CNS): > 100 µM
TGI (SK-MEL-28 melanoma): > 100 µM
TGI (HCT-15 colon): 32.8 µM
TGI (COLO 205 colon): > 100 µM
TGI (NCI-H522 lung): 48.9 µM
TGI (NCI-H460 lung): 35.1 µM
TGI (SK-MEL-2 melanoma): > 100 µM
TGI (T-47D breast): > 100 µM
TGI (TK-10 renal): > 100 µM
